In experiment [1] the test system is erectile response. Particulars: live male rabbits; Cama et al. 2003; cited from earlier work.
Experiment [2] deals with corpus cavernosum of the diabetic person. The following applies: ex vivo, Bivalacqua et al. 2001; cited from earlier work.
For experiment [3], the system named is engorgement response in the genitalia. The following applies: live female rabbits; Cama et al. 2003; cited from earlier work.
Experiment [4] relates to airway hyperresponsiveness. The following applies: guinea pigs, nebulizer treatment, allergic asthma model; cited from earlier work.
Experiment [5] deals with opossum internal anal sphincter muscle. Particulars: Baggio et al. 1999; cited from earlier work.
Experiment [6] deals with rabbit and human penile corpus cavernosum. Particulars: Cox et al. 1999; cited from earlier work.
Experiment [7] deals with experimental autoimmune encephalomyelitis. The following applies: Xu et al. 2003; cited from earlier work.
Experiment [8] has as its target T1, Arginase (Homo sapiens, UniProt P05089).
T1 sequence (P05089 1-322): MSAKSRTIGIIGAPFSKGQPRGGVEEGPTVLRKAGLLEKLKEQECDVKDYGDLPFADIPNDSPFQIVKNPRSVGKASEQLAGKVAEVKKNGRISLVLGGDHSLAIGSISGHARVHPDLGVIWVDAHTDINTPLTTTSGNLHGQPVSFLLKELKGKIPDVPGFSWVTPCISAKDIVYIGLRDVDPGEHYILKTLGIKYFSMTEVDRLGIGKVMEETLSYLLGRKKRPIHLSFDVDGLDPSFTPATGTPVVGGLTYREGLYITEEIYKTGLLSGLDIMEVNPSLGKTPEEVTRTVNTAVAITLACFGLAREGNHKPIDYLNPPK
Description: Arginase Thioornithine Generating Assay (TOGA). Particulars: recombinant arginase 1.88 nM, thioarginine substrate, fluorescence readout. The format is biochemical. How it is done:
Compounds were serially diluted in ten 3-fold steps in DMSO starting from 10 mM DMSO stocks. Compound dilutions or DMSO alone were then dispensed from the dilution plate into a Greiner black 384-well assay plate (catalog #781086) using an Echo 555 acoustic liquid handler (Labcyte).
Arginase protein was recombinantly expressed in Escherichia coli. Purified protein was then diluted in assay buffer (50 mM Tris pH 7.5, 50 mM NaCl, 1 mM manganese chloride, 0.05% bovine serum albumin to obtain a final Arginase concentration of 1.88 nM. Arginase solution (20 μL) or buffer alone (20 μL) were dispensed to wells of the assay plate using a BioRAPTR liquid dispenser (Beckman Coulter). Assay plates containing compound and arginase enzyme were incubated at room temperature for 30 minutes. Afterwards, 5 μL of 2.5 mM thioarginine (Cayman Chemicals) in assay buffer were added to each well of the assay plate using a BioRAPTR liquid dispenser. Plates were incubated at room temperature for 60 minutes and reactions were quenched by addition of 15 μL of 200 uM 7-Diethylamine-3-(4-maleimidophenyl)-4-methylcoumarin (Sigma Chemical) in 70% ethanol. Plates were briefly shaken to mix and the fluorescence was measured in an Spectramax plate reader (Molecular Devices) with a 410 nm excitation wavelength and an 490 nm emission wavelength.
Potencies were calculated by […] to the four parameter logistic IC50 equation.

In the case of `N[C@@H](CCCCB(O)O)C(=O)O` [ABH, (S)-2-amino-6-boronohexanoic acid], in experiment [1], the erectile response entry is “enhances the erectile response”. The nitric oxide biosynthesis entry in experiment [2] is given as “restores nitric oxide biosynthesis”. The “engorgement response in the genitalia” value in experiment [3] is listed as “enhances the engorgement response”. Besides, the airway hyperresponsiveness result in experiment [4] is “prevents airway hyperresponsiveness”. Besides, the “relaxation of internal anal sphincter muscle” value in experiment [5] is “relax this muscle”. Besides, the “nitric oxide-dependent relaxation of corpus cavernosum tissue” value in experiment [6] was “enhances the nitric oxide-dependent relaxation of this tissue”. Further, the disease score result in experiment [7] was “improves the disease score of animals”.
Broadly, the IC50 is the concentration needed to halve the response being measured. `O=C(O)[C@H]1NC[C@@H]2NCC[C@@]21CCCB(O)O` [Example 1, (3aS,4S,6aR)-3a-(3-boronopropyl)octahydropyrrolo[3,4-b]pyrrole-4-carboxylic Acid]: the concentration for half-maximal inhibition (IC50) in experiment [8] was found to be 1.61 nM.
In the case of `C[C@]1(CCCB(O)O)[C@@H](C(=O)O)N[C@@H]2CC[C@@H]21` [Example 17, (1R,3S,4R,5R)-4-(3-boronopropyl)-4-methyl-2-azabicyclo[3.2.0]heptane-3-carboxylic Acid], the IC50 in experiment [8] was found to be 66.5 nM.
Same read-out and setting: to `C[C@]1(CCCB(O)O)[C@@H](C(=O)O)N[C@H]2C[C@H]21` [Example 24, (1S,3S,4R,5S)-4-(3-boronopropyl)-4-methyl-2-azabicyclo[3.1.0]hexane-3-carboxylic Acid] belongs 5740 nM; to `O=C(O)[C@H]1NC[C@@H]2NC[C@@]21CCCB(O)O` [Example 34, (1S,2S,5R)-1-(3-boronopropyl)-3,6-diazabicyclo[3.2.0]heptane-2-carboxylic Acid], 104 nM.

Values taken from patent publication US20230140132A1, “ARGINASE INHIBITORS AND METHODS OF USE” (MERCK SHARP & DOHME LLC, priority 2020, published 2023).
